Results published in ChEMBL document CHEMBL1212788, “Mode of action of Van-M-02, a novel glycopeptide inhibitor of peptidoglycan synthesis, in vancomycin-resistant bacteria” (Antimicrob Agents Chemother, 2010).
≈ marks a conversion by molar mass, not a printed value.

How the values were obtained:
Enterococcus faecium [1] = assay: Antibacterial activity against vancomycin sensitive Enterococcus faecium isolate SR-16972 by broth dilution method; format: functional; conditions: isolate SR16972
Staphylococcus aureus [2] = assay: Antibacterial activity against methicillin susceptible Staphylococcus aureus RN4220 in presence of 8 ug/mL Nalpha,Nepsilon-diacetyl-L-Lys-D-Ala-D-Lactate by broth dilution method; format: functional
Staphylococcus aureus [3] = assay: Antibacterial activity against methicillin susceptible Staphylococcus aureus RN4220 by broth dilution method; format: functional
Enterococcus faecalis [4] = assay: Antibacterial activity against vancomycin B resistant Enterococcus faecalis isolate SR-23630 by broth dilution method; format: functional; conditions: isolate SR23630
Staphylococcus aureus [5] = assay: Antibacterial activity against methicillin resistant Staphylococcus aureus SR-3637 by broth dilution method; format: functional; conditions: SR3637
Enterococcus faecium [6] = assay: Antibacterial activity against vancomycin A resistant Enterococcus faecium isolate SR-7940 by broth dilution method; format: functional; conditions: isolate SR7940
Staphylococcus aureus [7] = assay: Antibacterial activity against methicillin susceptible Staphylococcus aureus Smith by broth dilution method; format: functional
Enterococcus faecalis [8] = assay: Antibacterial activity against vancomycin susceptible Enterococcus faecalis isolate SR1004 by broth dilution method; format: functional
Enterococcus faecalis [9] = assay: Antibacterial activity against vancomycin A resistant Enterococcus faecalis isolate SR-7914 by broth dilution method; format: functional; conditions: isolate SR7914
Staphylococcus aureus [10] = assay: Antibacterial activity against methicillin susceptible Staphylococcus aureus RN4220 in presence of 64 ug/mL Nalpha,Nepsilon-diacetyl-L-Lys-D-Ala-D-Ala by broth dilution method; format: functional
Staphylococcus aureus [11] = assay: Inhibition of lipid intermediate formation in vancomycin A resistant Staphylococcus aureus isolate HIP11714 assessed as reduction in N-acetyl-D-[1-3H]glucosamine incorporation in crude assay system; format: functional
Enterococcus faecium [12] = assay: Antibacterial activity against constitutively vancomycin B resistant Enterococcus faecium isolate SRM1101 by broth dilution method; format: functional
Enterococcus faecium [13] = assay: Antibacterial activity against vancomycin B resistant Enterococcus faecium isolate SR-23598 by broth dilution method; format: functional; conditions: isolate SR23598
Staphylococcus aureus [14] = assay: Antibacterial activity against vancomycin A resistant Staphylococcus aureus isolate HIP11714 by broth dilution method; format: functional
Staphylococcus aureus [15] = assay: Antibacterial activity against methicillin susceptible Staphylococcus aureus RN4220 in presence of 8 ug/mL Nalpha,Nepsilon-diacetyl-L-Lys-D-Ala-D-Ala by broth dilution method; format: functional
Staphylococcus aureus [16] = assay: Inhibition of lipid intermediate formation in methicillin susceptible Staphylococcus aureus RN4220 assessed as reduction in N-acetyl-D-[1-3H]glucosamine incorporation in crude assay system; format: functional
Staphylococcus aureus [17] = assay: Antibacterial activity against vancomycin intermediate Staphylococcus aureus ATCC 700787 by broth dilution method; format: functional
Staphylococcus aureus [18] = assay: Antibacterial activity against methicillin susceptible Staphylococcus aureus RN4220 in presence of 64 ug/mL Nalpha,Nepsilon-diacetyl-L-Lys-D-Ala-D-Lactate by broth dilution method; format: functional
[19] = Inhibition of methicillin susceptible Staphylococcus aureus RN4220 transglycosylase assessed as inhibition of peptidoglycan formation by crude assay
[20] = Inhibition of vancomycin A resistant Staphylococcus aureus isolate HIP11714 transglycosylase assessed as inhibition of peptidoglycan formation by crude assay

Compound: CN[C@H](CC(C)C)C(=O)N[C@H]1C(=O)N[C@@H](CC(N)=O)C(=O)N[C@H]2C(=O)N[C@H]3C(=O)N[C@H](C(=O)N[C@H](C(=O)O)c4cc(O)cc(O)c4-c4cc3ccc4O)[C@H](O)c3ccc(c(Cl)c3)Oc3cc2cc(c3O[C@H]2O[C@@H](CO)[C@H](O)[C@@H](O)[C@@H]2O[C@@H]2C[C@@](C)(NCc3cccc(NC(=O)c4ccc(C)c(OCc5ccccc5)c4[N+](=O)[O-])c3)[C@@H](O)[C@@H](C)O2)Oc2ccc(cc2Cl)[C@H]1O
- MIC (Enterococcus faecium [1]): 0.25 µg/mL (≈ 0.137 µM)
- MIC (Staphylococcus aureus [2]): 0.125 µg/mL
- MIC (Staphylococcus aureus [3]): 0.125 µg/mL (≈ 0.0685 µM)
- MIC (Enterococcus faecalis [4]): 0.5 µg/mL (≈ 0.274 µM)
- MIC (Staphylococcus aureus [5]): 0.25 µg/mL (≈ 0.137 µM)
- MIC (Enterococcus faecium [6]): 1 µg/mL (≈ 0.548 µM)
- MIC (Staphylococcus aureus [7]): 0.125 µg/mL (≈ 0.0685 µM)
- MIC (Enterococcus faecalis [8]): 0.25 µg/mL (≈ 0.137 µM)
- MIC (Enterococcus faecalis [9]): 2 µg/mL (≈ 1.1 µM)
- MIC (Staphylococcus aureus [10]): 0.5 µg/mL
- IC50 (Staphylococcus aureus [11]): 76 µg/mL (≈ 41.7 µM)
- MIC (Enterococcus faecium [12]): 4 µg/mL (≈ 2.19 µM)
- MIC (Enterococcus faecium [13]): 0.25 µg/mL (≈ 0.137 µM)
- MIC (Staphylococcus aureus [14]): 4 µg/mL (≈ 2.19 µM)
- MIC (Staphylococcus aureus [15]): 0.125 µg/mL
- IC50 (Staphylococcus aureus [16]): 32 µg/mL (≈ 17.5 µM)
- MIC (Staphylococcus aureus [17]): 2 µg/mL (≈ 1.1 µM)
- MIC (Staphylococcus aureus [18]): 0.0625 µg/mL
- IC50 [19]: 4.2 µg/mL (≈ 2.3 µM)
- IC50 [20]: 36 µg/mL (≈ 19.7 µM)

Compound: Cc1ccc(C(=O)Nc2cccc(CN[C@]3(C)C[C@@H](O[C@@H]4[C@@H](Oc5c6cc7cc5Oc5ccc(cc5Cl)[C@@H](O)[C@@H](N)C(=O)N[C@@H](CC(N)=O)C(=O)N[C@H]7C(=O)N[C@H]5C(=O)N[C@H](C(=O)N[C@H](C(=O)O)c7cc(O)cc(O)c7-c7cc5ccc7O)[C@H](O)c5ccc(c(Cl)c5)O6)O[C@@H](CO)[C@H](O)[C@H]4O)O[C@H](C)[C@@H]3O)c2)c([N+](=O)[O-])c1OCc1ccccc1
- MIC (Enterococcus faecium [1]): 2 µg/mL (≈ 1.18 µM)
- MIC (Staphylococcus aureus [2]): 2 µg/mL
- MIC (Staphylococcus aureus [3]): 2 µg/mL (≈ 1.18 µM)
- MIC (Enterococcus faecalis [4]): 4 µg/mL (≈ 2.36 µM)
- MIC (Staphylococcus aureus [5]): 2 µg/mL (≈ 1.18 µM)
- MIC (Enterococcus faecium [6]): 8 µg/mL (≈ 4.72 µM)
- MIC (Staphylococcus aureus [7]): 2 µg/mL (≈ 1.18 µM)
- MIC (Enterococcus faecalis [8]): 2 µg/mL (≈ 1.18 µM)
- MIC (Enterococcus faecalis [9]): 8 µg/mL (≈ 4.72 µM)
- MIC (Staphylococcus aureus [10]): 2 µg/mL
- IC50 (Staphylococcus aureus [11]): 93 µg/mL (≈ 54.8 µM)
- MIC (Enterococcus faecium [12]): 16 µg/mL (≈ 9.43 µM)
- MIC (Enterococcus faecium [13]): 4 µg/mL (≈ 2.36 µM)
- MIC (Staphylococcus aureus [14]): 16 µg/mL (≈ 9.43 µM)
- MIC (Staphylococcus aureus [15]): 2 µg/mL
- IC50 (Staphylococcus aureus [16]): 140 µg/mL (≈ 82.5 µM)
- MIC (Staphylococcus aureus [17]): 4 µg/mL (≈ 2.36 µM)
- MIC (Staphylococcus aureus [18]): 1 µg/mL
- IC50 [19]: 11 µg/mL (≈ 6.48 µM)
- IC50 [20]: 53 µg/mL (≈ 31.2 µM)

Compound: C[C@H]1O[C@H](O[C@@H]2[C@@H](Oc3c4cc5cc3Oc3ccc(cc3Cl)[C@@H](O)[C@@H](N)C(=O)N[C@@H](CC(N)=O)C(=O)N[C@H]5C(=O)N[C@H]3C(=O)N[C@H](C(=O)N[C@H](C(=O)O)c5cc(O)cc(O)c5-c5cc3ccc5O)[C@H](O)c3ccc(c(Cl)c3)O4)O[C@@H](CO)[C@H](O)[C@H]2O)C[C@@](C)(N)[C@H]1O
- MIC (Enterococcus faecium [1]): > 64 µg/mL
- MIC (Staphylococcus aureus [3]): > 64 µg/mL
- MIC (Enterococcus faecalis [4]): > 64 µg/mL
- MIC (Staphylococcus aureus [5]): > 64 µg/mL
- MIC (Enterococcus faecium [6]): > 64 µg/mL
- MIC (Staphylococcus aureus [7]): > 64 µg/mL
- MIC (Enterococcus faecalis [8]): > 64 µg/mL
- MIC (Enterococcus faecalis [9]): > 64 µg/mL
- IC50 (Staphylococcus aureus [11]): 3100 µg/mL (≈ 2340 µM)
- MIC (Enterococcus faecium [12]): > 64 µg/mL
- MIC (Enterococcus faecium [13]): > 64 µg/mL
- MIC (Staphylococcus aureus [14]): > 64 µg/mL
- IC50 (Staphylococcus aureus [16]): 3900 µg/mL (≈ 2950 µM)
- MIC (Staphylococcus aureus [17]): > 64 µg/mL
- IC50 [19]: 130 µg/mL (≈ 98.3 µM)
- IC50 [20]: 920 µg/mL (≈ 696 µM)

Compound: CN[C@H](CC(C)C)C(=O)N[C@H]1C(=O)N[C@@H](CC(N)=O)C(=O)N[C@H]2C(=O)N[C@H]3C(=O)N[C@H](C(=O)N[C@H](C(=O)O)c4cc(O)cc(O)c4-c4cc3ccc4O)[C@H](O)c3ccc(c(Cl)c3)Oc3cc2cc(c3O[C@@H]2O[C@H](CO)[C@@H](O)[C@H](O)[C@H]2O[C@H]2C[C@](C)(N)[C@H](O)[C@H](C)O2)Oc2ccc(cc2Cl)[C@H]1O [VANCOMYCIN]
- MIC (Enterococcus faecalis [4]): 32 µg/mL (≈ 22.1 µM)
- MIC (Enterococcus faecium [6]): > 64 µg/mL
- MIC (Enterococcus faecalis [8]): 2 µg/mL (≈ 1.38 µM)
- MIC (Enterococcus faecalis [9]): > 64 µg/mL
- MIC (Staphylococcus aureus [10]): 16 µg/mL
- IC50 (Staphylococcus aureus [11]): 2300 µg/mL (≈ 1590 µM)
- MIC (Enterococcus faecium [12]): > 64 µg/mL
- MIC (Enterococcus faecium [13]): > 64 µg/mL
- MIC (Staphylococcus aureus [14]): > 64 µg/mL
- IC50 (Staphylococcus aureus [16]): 180 µg/mL (≈ 124 µM)
- MIC (Staphylococcus aureus [17]): 8 µg/mL (≈ 5.52 µM)
- IC50 [19]: 4.5 µg/mL (≈ 3.11 µM)
- IC50 [20]: 85 µg/mL (≈ 58.7 µM)
